Results published in patent publication US20100190706A1, “Stable Non-Aqueous Pharmaceutical Compositions” (NOVO NORDISK A/S, priority 2007, published 2010).
Read-outs that look alike come from different tables or passages of the source.

How the values were obtained:
[1] = cited from earlier work
[2] = Isoelectric point (pI) of the insulinotropic peptide; assay type: physicochemical
From the text: The pI of a protein can be determined experimentally by electrophoresis techniques such as electrofocusing:
A pH gradient is established in an anticonvective medium, such as a polyacrylamide gel. When a protein is introduced in to the system it will migrate under influence of an electric field applied across the gel. Positive charged proteins will migrate to the cathode. Eventually, the migrating protein reaches a point in the pH gradient where its net electrical charge is zero and is said to be focused. This is the isoelectric pH (pI) of the protein. The protein is then fixed on the gel and stained. The pI of the protein can then be determined by comparison of the position of the protein on the gel relative to marker molecules with known pI values.

[3] = protic, very hydrophilic and polar solvents; lyophilized from aqueous solution of pH 6.0; cited from earlier work

Compound	Dielectricity constant, ε* ([1]; 293.2 Kelvin)	further results
CC(O)CO (stereo not drawn) [1,2-propanediol [propylene glycol], 1,2-propanediol]	–	Dielectricity constant, ε* ([1]; 303.2 Kelvin): 27.5
CC(O)CCO (stereo not drawn) [1,3-butanediol]	28.8	–
OCCCO [1,3-propanediol]	35.1	–
CCO [Ethanol]	25.3	–
CC(C)O [Isopropanol]	20.18	–
CO [Methanol]	33.0	–
O [Water]	80.1	–
Arg34, Lys26(N∈-(γ-Glu(Na-hexadecanoyl)))-GLP-1(7-37)	–	pI [2]: 5.6
lysozyme: lysozyme lyophilized from aqueous solution of pH 6.0 (Klibanov et al)	–	solubility [3]: more than 10 mg/ml
